These compounds were tested on THP1 cells (LPS induced TNF release) (assay: Lipopolysaccharide-Activated THP1 Cell TNF Production Assay). Conditions: Homo sapiens, THP-1; THP1 cells, bacterial LPS, secreted TNF-α after 3 h at 37° C.; read-out: IC50 values in the THP1 cell assay (LPS induced TNF release).
Assay type: cell-based
Method: Lipopolysaccharide-Activated THP1 Cell TNF Production Assay
THP1 cells are resuspended in fresh THP1 media (RPMI 1640, 10% heat-inactivated FBS, 1×PGS, 1×NEAA, plus 30 μM βME) at a concentration of 1E6/mL. One hundred microliters of cells per well are plated in a polystyrene 96-well tissue culture. One microgram per mL of bacterial LPS is prepared in THP1 media and is transferred to the wells. Test compounds are dissolved in 100% DMSO and are serially diluted 3 fold in a polypropylene 96-well microtiter plate (drug plate). HI control and LO control wells contain only DMSO. One microliter of test compound from the drug plate followed by 10 μL of LPS are transferred to the cell plate. The treated cells are induced to synthesize and secrete TNF-α at 37° C. for 3 h. Forty microliters of conditioned media are transferred to a 96-well polypropylene plate containing 110 μL of ECL buffer (50 mM Tris-HCl pH 8.0, 100 mM NaCl, 0.05% Tween 20, 0.05% NaN3 and 1% FBS) supplemented with 0.44 nM MAB610 monoclonal Ab (R&D Systems), 0.34 nM ruthenylated AF210NA polyclonal Ab (R&D Systems) and 44 μg/mL sheep anti-mouse M280 Dynabeads (Dynal). After a 2 h incubation at RT with shaking, the reaction is read on the ECL M8 Instrument (IGEN Inc.). A low voltage is applied to the ruthenylated TNF-α immune complexes, which in the presence of TPA (the active component in Origlo), results in a cyclical redox reaction generating light at […]. The amount of secreted TNF-α in the presence of compound compared with that in the presence of DMSO vehicle alone (HI control) is calculated using the formula: % control (POC)=(cpd−average LO)/(average HI−average LO)*100. Data (consisting of POC and inhibitor concentration in μM) is fitted to a 4-parameter equation (y=A+((B−A)/(1+((×/C)ôD))), where A is the minimum y (POC) value, B is the maximum y (POC), C is the x (cpd concentration) at the point of inflection and D is the slope factor) using a Levenburg-Marquardt non-linear regression algorithm.

IC50, ≤ 20 µM:
CSc1nccc(Nc2cc(-c3ccccc3)c(=O)n(C)c2)n1 [1-methyl-5-((2-(methylsulfanyl)-4-pyrimidinyl)amino)-3-phenyl-2(1H)-pyridinone]
CC(C)n1cc(N(C)c2ccnc(N[C@@H](C)Cc3cccc(CN)c3)n2)cc(-c2ccccc2)c1=O [5-((2-(((1S)-2-(3-(aminomethyl)phenyl)-1-methylethyl)amino)-4-pyrimidinyl)(methyl)amino)-1-(1-methylethyl)-3-phenyl-2(1H)-pyridinone]
C[C@@H](Cc1cccc([C@@H](C)N)c1)Nc1nccc(N(C)c2c[nH]c(=O)c(-c3ccccc3)c2)n1 [5-((2-((S)-1-(3-((R)-1-Aminoethyl)phenyl)propan-2-ylamino)pyrimidin-4-yl)-(methyl)amino)-3-phenylpyridin-2(1H)-one]
CN(c1ccnc(N[C@@H](CO)Cc2ccccc2)n1)c1ccnc(-c2ccccc2)n1 [(2R)-2-((4-(methyl(2-phenyl-4-pyrimidinyl)amino)-2-pyrimidinyl)amino)-3-phenyl-1-propanol]
CN(c1cc(-c2ccccc2)c(=O)n(C)c1)c1ccnc(N[C@@H](CC(=O)O)Cc2ccccc2)n1 [(3R)-3-((4-(methyl(1-methyl-6-oxo-5-phenyl-1,6-dihydro-3-pyridinyl)amino)-2-pyrimidinyl)amino)-4-phenylbutanoic acid]
CN(c1ccnc(N[C@@H](CCO)Cc2ccccc2)n1)c1ccnc(-c2ccccc2)n1 [(3R)-3-((4-(methyl(2-phenyl-4-pyrimidinyl)amino)-2-pyrimidinyl)amino)-4-phenyl-1-butanol]
CNC(=O)NCc1cccc(C[C@H](C)Nc2nccc(Nc3nc(-c4ccccc4)ncc3C(=O)NC)n2)c1 [(S)-1-(3-(2-(4-(5-(Methylcarbamoyl)-2-phenylpyrimidin-4-ylamino)pyrimidin-2-ylamino)propyl)benzyl)-3-methylurea]
CNC(=O)c1cnc(-c2ccccc2)nc1Nc1ccnc(N[C@@H](C)Cc2cccc(CN)c2)n1 [(S)-4-(2-(1-(3-(aminomethyl)phenyl)-propan-2-ylamino)pyrimidin-4-ylamino)-N-methyl-2-phenylpyrimidine-5-carboxamide]
C[C@@H](Cc1cccc(CNC(=O)OC(C)(C)C)c1)Nc1nccc(N(C)c2cc(-c3ccccc3)c(=O)n(C)c2)n1 [(S)-tert-Butyl-3-(2-(4-(methyl(1-methyl-6-oxo-5-phenyl-1,6-dihydro-pyridin-3-yl)amino)pyrimidin-2-ylamino)propyl)benzylcarbamate]
C[C@@H](Cc1cccc([C@@H](C)N)c1)Nc1nccc(N(C)c2ccnc(-c3ccccc3)n2)n1 [Example 1, N^2-((S)-1-(3-((R)-1-Aminoethyl)phenyl)propan-2-yl)-N^4-methyl-N^4-(2-phenylpyrimidin-4-yl)pyrimidine-2,4-diamine]
C[C@H](Nc1nccc(N(C)c2ccnc(-c3ccccc3)n2)n1)c1ccc(CCN)cc1 [Example 3, (S)-N^2-(1-(4-(2-Aminoethyl)phenyl)ethyl)-N^4-methyl-N^4-(2-phenylpyrimidin-4-yl)pyrimidine-2,4-diamine]
C[C@H](NC(=O)OC(C)(C)C)c1ccc(CCNc2nccc(N(C)c3ccnc(-c4ccccc4)n3)n2)cc1 [Example 4, (S)-tert-Butyl 1-(4-(2-(4-(methyl(2-phenylpyrimidin-4-yl)amino)pyrimidin-2-ylamino)ethyl)phenyl)ethyl carbamate]
CN(c1ccnc(NC(C)(C)Cc2ccccc2)n1)c1ccnc(-c2ccccc2)n1 [Example 6, N^4-Methyl-N^2-(2-methyl-1-phenylpropan-2-yl)-N^4-(2-phenylpyrimidin-4-yl)pyrimidine-2,4-diamine]
C[C@@H](Cc1cccc(C2(N)CC2)c1)Nc1nccc(N(C)c2ccnc(-c3ccccc3)n2)n1 [Example 7, (S)-N^2-(1-(3-(1-Aminocyclopropyl)phenyl)propan-2-yl)-N^4-methyl-N^4-(2-phenylpyrimidin-4-yl)pyrimidine-2,4-diamine]
